Bounds are passed on as bounds.

The subject of test [1] is Human immunodeficiency virus 1. The experiment in a line: Antiviral activity against HIV1 infected in human C8166 cells assessed as reduction in viral infection by measuring inhibition of syncytia formation incubated for 3 to 7 days by p24 detection based ELISA. Type of test: functional, organism-based. The note with it: Human immunodeficiency virus 1, C8166. In general terms: In an ELISA, binding on a coated surface is turned into a signal by an enzyme label.

In test [2] the test system is Hepatitis B virus. Nature of the test: Antiviral activity against Hepatitis B virus infected in human HepG2.2.15 cells assessed as inhibition of HBeAg secretion at 5 uM after 9 days by ELISA relative to control. Type of test: functional. The settings on record: HepG2.2.15, 216 h.
In test [3] the test system is Hepatitis B virus. The experiment in a line: Antiviral activity against Hepatitis B virus infected in human HepG2.2.15 cells assessed as inhibition of HBsAg secretion at 5 uM after 9 days by ELISA relative to control. The settings on record: HepG2.2.15, 216 h. Type of test: functional.
The test system of the next test is HepG2 2.2.15. The experiment in a line: Cytotoxicity against human HepG2.2.15 cells after 9 days by MTT assay. In kind it is functional. The settings on record: HepG2 2.2.15, 216 h. (In general: Tetrazolium assays rely on reduction of a dye to a coloured formazan, in cell work by metabolically active cells.)
Test [4] relates to Hepatitis B virus. Nature of the test: Antiviral activity against Hepatitis B virus infected in human HepG2.2.15 cells assessed as inhibition of intracellular HBV DNA level at 0.2 uM measured on day 9 by FQ-PCR analysis. The settings on record: HepG2.2.15, 216 h. Type of test: functional.
The test system of test [5] is Hepatitis B virus. Nature of the test: Antiviral activity against Hepatitis B virus infected in human HepG2.2.15 cells assessed as inhibition of intracellular HBV DNA level at 1 uM measured on day 9 by FQ-PCR analysis. In kind it is functional. The settings on record: HepG2.2.15, 216 h.
The test system of test [6] is Hepatitis B virus. Nature of the test: Antiviral activity against Hepatitis B virus infected in human HepG2.2.15 cells assessed as inhibition of intracellular HBV DNA level at 5 uM measured on day 9 by FQ-PCR analysis. Type of test: functional. The settings on record: HepG2.2.15, 216 h.
In test [7] the test system is Hepatitis B virus. The experiment in a line: Antiviral activity against Hepatitis B virus harboring rtV173L/L180M/M204V mutant infected in HepGRL1 cells assessed as inhibition of intracellular HBV DNA level at 0.2 uM measured on day 9 by FQ-PCR analysis relative to control. Type of test: functional. The settings on record: 216 h.
Test [8] relates to Hepatitis B virus. The experiment in a line: Antiviral activity against Hepatitis B virus harboring rtV173L/L180M/M204V mutant infected in HepGRL1 cells assessed as inhibition of intracellular HBV DNA level at 1 uM measured on day 9 by FQ-PCR analysis relative to control. In kind it is functional. The settings on record: 216 h.
Test [9] relates to Hepatitis B virus. The experiment in a line: Antiviral activity against Hepatitis B virus harboring rtV173L/L180M/M204V mutant infected in HepGRL1 cells assessed as inhibition of intracellular HBV DNA level at 5 uM measured on day 9 by FQ-PCR analysis relative to control. In kind it is functional. The settings on record: 216 h.
For test [10], the system named is Hepatitis B virus. The experiment in a line: Antiviral activity against Hepatitis B virus harboring rtV173L/L180M/M204V mutant infected in HepGRL1 cells assessed as inhibition of intracellular HBV DNA level at 0.2 uM measured on day 6 by FQ-PCR analysis relative to control. Type of test: functional. The settings on record: 144 h.
Test [11] relates to Hepatitis B virus. Nature of the test: Antiviral activity against Hepatitis B virus harboring rtV173L/L180M/M204V mutant infected in HepGRL1 cells assessed as inhibition of intracellular HBV DNA level at 1 uM measured on day 6 by FQ-PCR analysis relative to control. Type of test: functional. The settings on record: 144 h.
Test [12] concerns Hepatitis B virus. The experiment in a line: Antiviral activity against Hepatitis B virus harboring rtV173L/L180M/M204V mutant infected in HepGRL1 cells assessed as inhibition of intracellular HBV DNA level at 5 uM measured on day 6 by FQ-PCR analysis relative to control. Type of test: functional. The note with it: 144 h.
Test [13] has as its system Hepatitis B virus. Nature of the test: Antiviral activity against Hepatitis B virus infected in human HepG2.2.15 cells assessed as inhibition of intracellular HBV DNA level at 0.2 uM measured on day 6 by FQ-PCR analysis. Type of test: functional. The note with it: HepG2.2.15, 144 h.
Test [14] has as its system Hepatitis B virus. The experiment in a line: Antiviral activity against Hepatitis B virus infected in human HepG2.2.15 cells assessed as inhibition of intracellular HBV DNA level at 1 uM measured on day 6 by FQ-PCR analysis. In kind it is functional. The settings on record: HepG2.2.15, 144 h.
Test [15] has as its system Hepatitis B virus. Nature of the test: Antiviral activity against Hepatitis B virus infected in human HepG2.2.15 cells assessed as inhibition of intracellular HBV DNA level at 5 uM measured on day 6 by FQ-PCR analysis. In kind it is functional. The note with it: HepG2.2.15, 144 h.
For test [16], the system named is Duck hepatitis B virus. Nature of the test: Antiviral activity against DHBV infected in duck assessed as inhibition of viral DNA level in serum at 0.04 mg/kg, po administered once daily measured on day 10 by SYBR Green I dye-based FQ-PCR analysis relative to control. In kind it is functional. The settings on record: 240 h.
The subject of test [17] is Duck hepatitis B virus. The experiment in a line: Antiviral activity against DHBV infected in duck assessed as inhibition of viral DNA level in serum at 0.2 mg/kg, po administered once daily measured on day 10 by SYBR Green I dye-based FQ-PCR analysis relative to control. In kind it is functional. The settings on record: 240 h.
Test [18] deals with Duck hepatitis B virus. Nature of the test: Antiviral activity against DHBV infected in duck assessed as inhibition of viral DNA level in serum at 1 mg/kg, po administered once daily measured on day 10 by SYBR Green I dye-based FQ-PCR analysis relative to control. Type of test: functional. The note with it: 240 h.
Test [19] has as its system Duck hepatitis B virus. Nature of the test: Antiviral activity against DHBV infected in duck assessed as inhibition of viral DNA level in serum at 0.04 mg/kg, po administered once daily measured on day 15 by SYBR Green I dye-based FQ-PCR analysis relative to control. The settings on record: 360 h. In kind it is functional.
The test system of test [20] is Duck hepatitis B virus. Nature of the test: Antiviral activity against DHBV infected in duck assessed as inhibition of viral DNA level in serum at 0.2 mg/kg, po administered once daily measured on day 15 by SYBR Green I dye-based FQ-PCR analysis relative to control. In kind it is functional. The note with it: 360 h.
In test [21] the test system is Duck hepatitis B virus. Nature of the test: Antiviral activity against DHBV infected in duck assessed as inhibition of viral DNA level in serum at 1 mg/kg, po administered once daily measured on day 15 by SYBR Green I dye-based FQ-PCR analysis relative to control. In kind it is functional. The note with it: 360 h.
Test [22] deals with Duck hepatitis B virus. Nature of the test: Antiviral activity against DHBV infected in duck assessed as inhibition of viral DNA level in liver at 0.04 mg/kg, po administered once daily measured on day 10 by SYBR Green I dye-based FQ-PCR analysis relative to control. In kind it is functional. The note with it: 240 h.
Test [23] has as its system Duck hepatitis B virus. Nature of the test: Antiviral activity against DHBV infected in duck assessed as inhibition of viral DNA level in liver at 0.2 mg/kg, po administered once daily measured on day 10 by SYBR Green I dye-based FQ-PCR analysis relative to control. In kind it is functional. The settings on record: 240 h.
The subject of test [24] is Duck hepatitis B virus. Nature of the test: Antiviral activity against DHBV infected in duck assessed as inhibition of viral DNA level in liver at 1 mg/kg, po administered once daily measured on day 10 by SYBR Green I dye-based FQ-PCR analysis relative to control. The note with it: 240 h. Type of test: functional.
For test [25], the system named is Duck hepatitis B virus. Nature of the test: Antiviral activity against DHBV infected in duck assessed as inhibition of viral DNA level in liver at 0.04 mg/kg, po administered once daily measured on day 15 by SYBR Green I dye-based FQ-PCR analysis relative to control. Type of test: functional. The note with it: 360 h.
The subject of test [26] is Duck hepatitis B virus. Nature of the test: Antiviral activity against DHBV infected in duck assessed as inhibition of viral DNA level in liver at 0.2 mg/kg, po administered once daily measured on day 15 by SYBR Green I dye-based FQ-PCR analysis relative to control. Type of test: functional. The settings on record: 360 h.
The subject of test [27] is Duck hepatitis B virus. The experiment in a line: Antiviral activity against DHBV infected in duck assessed as inhibition of viral DNA level in liver at 1 mg/kg, po administered once daily measured on day 15 by SYBR Green I dye-based FQ-PCR analysis relative to control. Type of test: functional. The note with it: 360 h.

What is called EC50 is the concentration needed to bring the measured effect to its halfway point. Consider `[N-]=[N+]=N[C@]1(CO)O[C@@H](n2ccc(N)nc2=O)[C@@H](F)[C@@H]1O` [RO-0622], for which the EC50 in [1] stood at 0.0003 µM.
For orientation: inhibition means the drop in the measured response relative to a control, in per cent. What is called CC50 is the concentration giving 50% cytotoxicity. In the case of `[N-]=[N+]=N[C@]1(CO)O[C@@H](n2cc(C3CC3)nn2)[C@@H](F)[C@@H]1O`, the inhibition at 5 µM with Hepatitis B virus [2] came to 26.2%; in the test with Hepatitis B virus [3], 28.9%. Besides, the CC50 in the test with HepG2 2.2.15 is over 1000 µM.
For `COC(=N)c1cn([C@@H]2O[C@@](CO)(N=[N+]=[N-])[C@@H](O)[C@@H]2F)nn1`, the inhibition at 5 µM came to 11.4% in the test with Hepatitis B virus [2] and 17.7% in the test with Hepatitis B virus [3]. Moreover, the midpoint of cytotoxicity in the test on HepG2 2.2.15, the CC50, lay at 101 µM.
As usually defined, the inhibition in vivo is the change of the read-out against control, counted positive when it falls. On to `[N-]=[N+]=N[C@]1(CO)O[C@@H](n2cc(C(N)=O)nn2)[C@@H](F)[C@@H]1O`, for which the inhibition at 5 µM was 21.9% with Hepatitis B virus [2]; 45.3% with Hepatitis B virus [3]; 57.1% in the test with Hepatitis B virus [6]; 64.1% in the test on Hepatitis B virus [9]; 49.2% in the test on Hepatitis B virus [12]; 42.6% in the test on Hepatitis B virus [15]. Also, the cytotoxic concentration (CC50) in the test on HepG2 2.2.15 was 526 µM. The inhibition at 0.2 µM in the test on Hepatitis B virus [4] worked out at 34.7%; in the test on Hepatitis B virus [7], 28.2%; in the test on Hepatitis B virus [10], 15.8%; in the test with Hepatitis B virus [13], 13.1%. In addition, the inhibition at 1 µM in the test with Hepatitis B virus [5] was 51%; in the test on Hepatitis B virus [8] it was 52.4%; in the test on Hepatitis B virus [11], 27.5%; in the test with Hepatitis B virus [14], 39.3%. The inhibition in vivo at 0.04 mg/kg was determined as 8.7% in the test on Duck hepatitis B virus [16], 35.7% in the test on Duck hepatitis B virus [19], 7.1% in the test with Duck hepatitis B virus [22] and 12.2% in the test with Duck hepatitis B virus [25]. Further, the inhibition in vivo at 0.2 mg/kg turned out to be 26.1% in the test with Duck hepatitis B virus [17], 39.3% in the test with Duck hepatitis B virus [20], 21.4% in the test with Duck hepatitis B virus [23] and 24.4% in the test on Duck hepatitis B virus [26]. In addition, the inhibition in vivo at 1 mg/kg turned out to be 56.5% in the test on Duck hepatitis B virus [18], 67.9% in the test on Duck hepatitis B virus [21], 50% in the test on Duck hepatitis B virus [24] and 53.7% with Duck hepatitis B virus [27].
Take `COC(=O)c1cn([C@@H]2O[C@@](CO)(N=[N+]=[N-])[C@@H](O)[C@@H]2F)nn1`: the inhibition at 5 µM in the test on Hepatitis B virus [2] came to 12.3%; in the test with Hepatitis B virus [3] it was 22%. Also, the CC50 with HepG2 2.2.15 was found to be 115 µM.

The values are drawn from ChEMBL document CHEMBL4251574, “Design, synthesis, and biological evaluation of new 1,2,3-triazolo-2'-deoxy-2'-fluoro- 4'-azido nucleoside derivatives as potent anti-HBV agents” (Eur J Med Chem, 2018).
